Laboratory results reported in publication PMC9602571, “Discovery of a Dual SENP1 and SENP2 Inhibitor” (International Journal of Molecular Sciences, 2022).

How the values were obtained:
SENP1 [1] = target: T1, SENP1 (Homo sapiens, UniProt Q9P0U3); experiment: Photo crosslinking experiments with SENP1; type: binding; details: competitor 400 µM, probe 56 200 µM
T1 construct: Human recombinant, His6-SENP1 Catalytic Domain; His6 (N); purchased Boston Biochem (Bio-Techne AG) E-700
T1 sequence (Q9P0U3 450-613 limits assumed): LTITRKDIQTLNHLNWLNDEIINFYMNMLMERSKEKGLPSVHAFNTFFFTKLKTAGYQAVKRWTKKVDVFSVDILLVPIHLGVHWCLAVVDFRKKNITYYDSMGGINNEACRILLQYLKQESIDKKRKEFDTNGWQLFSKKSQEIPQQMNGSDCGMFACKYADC
Procedure: A buffer exchange of the commercially available 6 × His-SENP1 Protein (Boston Biochem Cat# E-700) to a 50 mM HEPES, 150 mM NaCl; 0.5 mM EDTA, 1 mM DTT, pH 7.5 was performed. A total of 200 μM of the photo affinity probe 56 with or without competitor molecule 11 (400 μM) was incubated in 10 uM SENP1 for 30 min at 0 °C. Subsequently, the mixtures were irradiated in a Proma UV exposure unit equipped with four 8 Watt lamps (Hitachi FL8BL-8, ~350 nm) for 30 min at 0 °C. Then, 50 µL of the crosslinked proteins were mixed with freshly prepared click mix solution (50 μL; 1 mM CuSO4, 1 mM TCEP, 100 uM THPTA from a 5 mM DMSO stock, dissolved in Milli-Q Water) and a 10 mM stock solution of azide fluor 545 (1 μL) and incubated at 0 °C for 14 h. […] Protein samples for SDS-PAGE were first prepared in 1 × Laemmli sample buffer (diluted from 4 × Laemmli sample buffer (ROTI®Load), and subsequently denatured at 100 °C for 15 min. After SDS-PAGE gel electrophoresis separation, the fluorescence was visualized (Ex. 520 nm, Em. 575 nm) on the SDS PAGE gel using ImageQuant^TM 4000 LAS (GE Healthcare, Chicago, IL, USA). Secondly, the gels were stained with Bio-Safe Coomassie Brilliant Blue G-250 (BioRad) for 60 min. De-staining was performed with 40% (v/v) methanol, 10% (v/v) glacial acetic acid, 50% (v/v) Milli-Q water until protein bands became visible.

SENP1 [2] = target: T1, SENP1; experiment: Fluorogenic SENP1 assay, SUMO3-AMC substrate; type: biochemical; details: n = 2
Procedure: (§1) Human recombinant, His6-SENP1 Catalytic Domain (Boston Biochem Cat# E-700, Bio-Techne AG, Zug, Switzerland) was prepared in reaction buffer (50 mM HEPES, 150 mM NaCl, 0.5 mM EDTA, 1 mM DTT, pH 7.5, 0.01% CHAPS). To this solution, a 20 mM or 50 mM inhibitor stock solution in DMSO was added and the mixture was incubated for 15 min at ambient temperature. […] The data were analyzed by taking the slope (signal/time) of the linear portion of measurement. The slope was calculated using Excel and the curve fits were performed using GraphPad Prism7 with a four-parameter least-squares fit. The final reaction conditions contained 0.02 nM SENP1 and 300 nM SUMO1/2 or 3-AMC).

Ataxin-3 = target: T2, Ataxin-3 (Homo sapiens, UniProt P54252); experiment: Ataxin-3 activity assay, Ubiquitin-AMC substrate; type: biochemical; details: n = 2
T2 construct: purchased BPS 80399
Procedure: IC50 measurements were conducted at Reaction Biology Corporation, Malvern, PA, USA, with two replications using 10 concentrations starting at 200 μM with three-fold dilution. Curve fits were performed where the enzyme activities at the highest concentration of compounds were less than 65%. UCHL1 II was used as a control inhibitor. The procedure was performed analogous to the fluorogenic SENP2 assay described in 3.3.2. using the Ataxin-3 enzyme (BPS Cat# 80399) and Ubiquitin-AMC substrate (Enzo Cat# BML-SE211-0025). The final reaction conditions contained 500 nM Ataxin-3 and 100 nM Ubiquitin-AMC.

SENP2 = target: T3, SENP2 (Homo sapiens, UniProt Q9HC62); experiment: Fluorogenic SENP2 assay, SUMO1-AMC substrate; type: biochemical; details: n = 2
T3 construct: Human recombinant catalytic domain expressed in E. coli; purchased Enzo BML-UW9765; host or cells: E. coli
T3 sequence (Q9HC62 396-560 limits assumed): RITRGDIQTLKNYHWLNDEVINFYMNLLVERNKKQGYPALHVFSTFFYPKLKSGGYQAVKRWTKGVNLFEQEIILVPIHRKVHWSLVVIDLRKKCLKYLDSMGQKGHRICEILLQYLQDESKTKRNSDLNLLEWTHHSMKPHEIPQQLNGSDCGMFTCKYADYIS
Procedure: The IC50 measurements were conducted at Reaction Biology Corporation, Malvern, PA, USA, with two replications using 10 concentrations starting at 200 μM with a three-fold dilution. Curve fits were performed where the enzyme activities at the highest concentration of compounds were less than 65%. UCH-L3 I was used as a control inhibitor. To SENP2 (Enzo Cat# BML-UW9765, Human recombinant catalytic domain expressed in E. coli.) in reaction buffer (50 mM HEPES, 150 mM NaCl, 0.5 mM EDTA, 1 mM DTT, pH 7.5, 0.01% CHAPS) was delivered the compound stock solution by acoustic technology (Echo550; nanoliter range) and subsequently incubated for 15 min at ambient temperature. The substrate SUMO1-AMC (R&D Systems Cat# UL-551-050, Lot# 07613314A, Fluorescence labeled full-length SUMO1 protein) was delivered to the well-plate to initiate the reaction. The enzyme activities were monitored (Ex/Em = 355/460 nm) as a time-course measurement of the increase in fluorescence signal from SUMO1-AMC for 90 min at ambient temperature. The data were analyzed by taking the slope (signal/time) of linear portion of measurement. The slope was calculated using Excel and the curve fits were performed using GraphPad Prism7 with a four-parameter least-squares fit. The final reaction conditions contained 0.015 nM SENP2 and 300 nM SUMO1/2 or 3-AMC.

SENP1 [3] = target: T1, SENP1; experiment: Fluorogenic SENP1 assay, SUMO1-AMC substrate; type: biochemical
Procedure: as §1, with “The” for “The data were analyzed by taking the slope (signal/time) of the linear portion of measurement. The”

T2 sequence (P54252 whole entry): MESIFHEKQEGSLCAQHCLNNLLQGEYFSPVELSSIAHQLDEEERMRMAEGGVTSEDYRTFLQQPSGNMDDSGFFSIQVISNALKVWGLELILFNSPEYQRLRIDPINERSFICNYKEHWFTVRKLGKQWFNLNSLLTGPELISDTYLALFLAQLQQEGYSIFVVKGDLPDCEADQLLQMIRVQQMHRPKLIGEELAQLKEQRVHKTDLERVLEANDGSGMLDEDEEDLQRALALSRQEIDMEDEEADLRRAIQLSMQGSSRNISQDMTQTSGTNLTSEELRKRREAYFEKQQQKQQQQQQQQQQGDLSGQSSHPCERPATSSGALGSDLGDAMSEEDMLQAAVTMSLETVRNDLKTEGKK

fluorescently labelled band of SENP1 in competition with photo probe 56 (SENP1 [1]): significantly decreased | IC50 (SENP1 [2]): 59 µM | IC50 (SENP2): 2.3 µM | IC50 (SENP1 [3]; SUMO1-AMC 300 nM, 0.02 nM SENP1, interval in parentheses, read-out: IC50 SENP1): 8.6 µM | IC50 (SENP1 [3]; screening library samples, SUMO1-AMC, read-out: IC50 SENP1 of hit molecules): 5.1 µM
SMILES: O=C(Cn1nnc(-c2ccccc2)n1)N1c2ccccc2NC(=O)C12CCCC2 [Compound 11, 1′-[2-(5-Phenyl-2H-1,2,3,4-tetrazol-2-yl)acetyl]-3′,4′-dihydro-1′H-spiro[cyclopentane-1,2′-quinoxalin]-3′-one]
IC50 (Ataxin-3): 68 µM
